# Literature values in article PMC6270667, “Loddigesiinols G–J: α-Glucosidase Inhibitors from Dendrobium loddigesii” (Molecules, 2014).
# Target: α-glucosidase (Saccharomyces cerevisiae, UniProt P53341)
# Set-up: method as in PMID 16478243
# Conditions: reported in the literature
# Sequence of α-glucosidase (P53341 whole entry): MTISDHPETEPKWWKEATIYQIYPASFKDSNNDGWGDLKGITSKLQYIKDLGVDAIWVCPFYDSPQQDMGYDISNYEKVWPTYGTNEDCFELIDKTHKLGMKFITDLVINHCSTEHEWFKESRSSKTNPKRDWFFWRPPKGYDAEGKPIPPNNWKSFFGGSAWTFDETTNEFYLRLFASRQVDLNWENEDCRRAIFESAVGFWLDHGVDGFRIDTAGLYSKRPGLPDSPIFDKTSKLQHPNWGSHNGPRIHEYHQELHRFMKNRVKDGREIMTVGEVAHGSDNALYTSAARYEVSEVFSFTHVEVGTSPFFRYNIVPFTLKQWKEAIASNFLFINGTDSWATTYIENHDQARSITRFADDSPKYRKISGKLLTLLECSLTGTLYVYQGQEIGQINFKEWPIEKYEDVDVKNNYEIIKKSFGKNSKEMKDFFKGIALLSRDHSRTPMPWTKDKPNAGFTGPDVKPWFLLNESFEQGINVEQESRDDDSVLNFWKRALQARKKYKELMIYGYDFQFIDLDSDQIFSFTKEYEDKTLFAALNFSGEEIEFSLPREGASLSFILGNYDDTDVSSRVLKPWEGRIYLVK
smiles,measurement,value
"Oc1ccc(/C=C/c2cc(O)cc(O)c2)cc1 [trans-Resveratrol, trans-resveratrol]",α-glucosidase inhibitory effect compared with the clinical drug acarbose,more potent inhibitory effect than the clinical drug acarbose
